ChEMBL document CHEMBL1145489, “Isoniazid induces its own resistance in nonreplicating Mycobacterium tuberculosis” (Antimicrob Agents Chemother, 2007)

Assays:
[1] = test system: Mycobacterium tuberculosis; assay: Antimicrobial activity against Mycobacterium tuberculosis TB19 isolate at 0.1 ug/ml after 2 weeks; type: functional
[2] = test system: Mycobacterium tuberculosis; assay: Antimicrobial activity against Mycobacterium tuberculosis TB7 isolate at 0.1 ug/ml after 3 weeks; type: functional
[3] = test system: Mycobacterium tuberculosis; assay: Antimicrobial activity against Mycobacterium tuberculosis TB7 isolate at 0.4 ug/ml after 2 weeks; type: functional
[4] = test system: Mycobacterium tuberculosis; assay: Antimicrobial activity against Mycobacterium tuberculosis TB7 isolate at 0.1 ug/ml after 1 week; type: functional
[5] = test system: Mycobacterium tuberculosis; assay: Antimicrobial activity against Mycobacterium tuberculosis H37Rv at 0.1 ug/ml after 1 week by […] method; type: functional
[6] = test system: Mycobacterium tuberculosis; assay: Antimicrobial activity against Mycobacterium tuberculosis TB20 isolate at 0.1 ug/ml after 4 weeks; type: functional
[7] = test system: Mycobacterium tuberculosis; assay: Antimicrobial activity against Mycobacterium tuberculosis TB19 isolate at 0.1 ug/ml after 4 weeks; type: functional
[8] = test system: Mycobacterium tuberculosis; assay: Antimicrobial activity against Mycobacterium tuberculosis TB19 isolate at 0.1 ug/ml after 1 week; type: functional
[9] = test system: Mycobacterium tuberculosis; assay: Antimicrobial activity against Mycobacterium tuberculosis H37Rv at 0.4 ug/ml after 2 weeks by […] method; type: functional
[10] = test system: Mycobacterium tuberculosis; assay: Antimicrobial activity against Mycobacterium tuberculosis TB7 isolate at 0.4 ug/ml after 1 week; type: functional
[11] = test system: Mycobacterium tuberculosis; assay: Antimicrobial activity against Mycobacterium tuberculosis TB19 isolate at 0.1 ug/ml after 3 weeks; type: functional
[12] = test system: Mycobacterium tuberculosis; assay: Antimicrobial activity against Mycobacterium tuberculosis TB19 isolate at 0.4 ug/ml after 3 weeks; type: functional
[13] = test system: Mycobacterium tuberculosis; assay: Antimicrobial activity against Mycobacterium tuberculosis TB20 isolate at 0.1 ug/ml after 3 weeks; type: functional
[14] = test system: Mycobacterium tuberculosis; assay: Antimicrobial activity against Mycobacterium tuberculosis TB7 isolate at 0.4 ug/ml after 3 weeks; type: functional
[15] = test system: Mycobacterium tuberculosis; assay: Antimicrobial activity against Mycobacterium tuberculosis TB20 isolate at 0.4 ug/ml after 2 weeks; type: functional
[16] = test system: Mycobacterium tuberculosis; assay: Antimicrobial activity against Mycobacterium tuberculosis TB20 isolate at 0.1 ug/ml after 2 weeks; type: functional
[17] = test system: Mycobacterium tuberculosis; assay: Antimicrobial activity against Mycobacterium tuberculosis H37Rv at 0.1 ug/ml after 3 weeks by […] method; type: functional
[18] = Stability in BACTEC medium at 37 degC upto 4 weeks; type: physicochemical; details: 672 h
[19] = test system: Mycobacterium tuberculosis; assay: Antimicrobial activity against Mycobacterium tuberculosis TB19 isolate at 0.4 ug/ml after 4 weeks; type: functional
[20] = test system: Mycobacterium tuberculosis; assay: Antimicrobial activity against Mycobacterium tuberculosis TB7 isolate at 0.1 ug/ml after 4 weeks; type: functional
[21] = test system: Mycobacterium tuberculosis; assay: Antimicrobial activity against Mycobacterium tuberculosis H37Rv at 0.1 ug/ml after 4 weeks by […] method; type: functional
[22] = test system: Mycobacterium tuberculosis; assay: Antimicrobial activity against Mycobacterium tuberculosis TB7 isolate at 0.4 ug/ml after 4 weeks; type: functional
[23] = test system: Mycobacterium tuberculosis; assay: Antimicrobial activity against Mycobacterium tuberculosis H37Rv at 0.4 ug/ml after 1 week by […] method; type: functional
[24] = test system: Mycobacterium tuberculosis; assay: Antimicrobial activity against Mycobacterium tuberculosis TB20 isolate at 0.4 ug/ml after 1 week; type: functional
[25] = test system: Mycobacterium tuberculosis; assay: Antimicrobial activity against Mycobacterium tuberculosis TB19 isolate at 0.4 ug/ml after 2 weeks; type: functional
[26] = test system: Mycobacterium tuberculosis; assay: Antimicrobial activity against Mycobacterium tuberculosis TB20 isolate at 0.4 ug/ml after 4 weeks; type: functional
[27] = test system: Mycobacterium tuberculosis; assay: Antimicrobial activity against Mycobacterium tuberculosis TB19 isolate at 0.4 ug/ml after 1 week; type: functional
[28] = test system: Mycobacterium tuberculosis; assay: Antimicrobial activity against Mycobacterium tuberculosis TB20 isolate at 0.1 ug/ml after 1 week; type: functional
[29] = test system: Mycobacterium tuberculosis; assay: Antimicrobial activity against Mycobacterium tuberculosis H37Rv at 0.4 ug/ml after 3 weeks by […] method; type: functional
[30] = test system: Mycobacterium tuberculosis; assay: Antimicrobial activity against Mycobacterium tuberculosis H37Rv at 0.4 ug/ml after 4 weeks by […] method; type: functional
[31] = test system: Mycobacterium tuberculosis; assay: Antimicrobial activity against Mycobacterium tuberculosis H37Rv at 0.1 ug/ml after 2 weeks by […] method; type: functional
[32] = test system: Mycobacterium tuberculosis; assay: Antimicrobial activity against Mycobacterium tuberculosis TB7 isolate at 0.1 ug/ml after 2 weeks; type: functional
[33] = test system: Mycobacterium tuberculosis; assay: Antimicrobial activity against Mycobacterium tuberculosis TB20 isolate at 0.4 ug/ml after 3 weeks; type: functional
[34] = test system: Mycobacterium tuberculosis; assay: Antimicrobial activity against Mycobacterium tuberculosis H37Rv at 2 ug/ml after 4 weeks by […] method; type: functional
[35] = test system: Mycobacterium tuberculosis; assay: Antimicrobial activity against Mycobacterium tuberculosis H37Rv at 2 ug/ml after 1 week by […] method; type: functional
[36] = test system: Mycobacterium tuberculosis; assay: Antimicrobial activity against Mycobacterium tuberculosis H37Rv at 2 ug/ml after 3 weeks at by […] method; type: functional
[37] = test system: Mycobacterium tuberculosis; assay: Antimicrobial activity against Mycobacterium tuberculosis H37Rv at 2 ug/ml after 2 weeks by […] method; type: functional

NNC(=O)c1ccncc1 [ISONIAZID]
CFU [1]: 1.1 10^3/ml | CFU [2]: 2.5 10^4/ml | CFU [3]: 5.6 10^2/ml | CFU [4]: 1.7 10^5/ml | CFU [5]: 1.2 10^3/ml | CFU [6]: 2.5 10^4/ml | CFU [7]: 7 10^3/ml | CFU [8]: 25 mL⁻¹ | CFU [9]: 3.6 10^3/ml | CFU [10]: 0 mL⁻¹ | CFU [11]: 4.8 10^3/ml | CFU [12]: 3.4 10^4/ml | CFU [13]: 1.6 10^4/ml | CFU [14]: 1.2 10^4/ml | CFU [15]: 1.3 10^4/ml | CFU [16]: 1.4 10^4/ml | CFU [17]: 2.4 10^4/ml | Stability [18]: Stable | CFU [19]: 4.8 10^4/ml | CFU [20]: 7.9 10^4/ml | CFU [21]: 1.22 10^5/ml | CFU [22]: 1.1 10^5/ml | CFU [23]: 55 mL⁻¹ | CFU [24]: 40 mL⁻¹ | CFU [25]: 2 10^2/ml | CFU [26]: 8 10^4/ml | CFU [27]: 0 mL⁻¹ | CFU [28]: 2.4 10^2/ml | CFU [29]: 1.45 10^4/ml | CFU [30]: 1.32 10^4/ml | CFU [31]: 3.1 10^3/ml | CFU [32]: 7.6 10^3/ml | CFU [33]: 7.5 10^4/ml

CO[C@H]1/C=C/O[C@@]2(C)Oc3c(C)c(O)c4c(O)c(c(/C=N/N5CCN(C)CC5)c(O)c4c3C2=O)NC(=O)/C(C)=C\C=C\[C@H](C)[C@H](O)[C@@H](C)[C@@H](O)[C@@H](C)[C@H](OC(C)=O)[C@@H]1C [RIFAMPIN]
CFU [34]: 0 mL⁻¹ | CFU [35]: 0 mL⁻¹ | CFU [36]: 0 mL⁻¹ | CFU [37]: 0 mL⁻¹
